These results are taken from ChEMBL document CHEMBL1152854, “Synthesis, characterization and in vitro antibacterial activity of new steroidal 5-en-3-oxazolo and thiazoloquinoxaline” (Eur J Med Chem, 2008).

Values after ≈ are worked out from the molar mass of the structure shown.

Assay [1] relates to Escherichia coli. The assay can be described thus: Antimicrobial activity against Escherichia coli at 200 ug/mL after 24 hrs by disk diffusion method. It is filed as functional. The note with it: read-out: IZ. (Agar diffusion results depend on both activity and mobility in agar.)
Assay [2] concerns Salmonella typhimurium. The assay is described as follows: Antimicrobial activity against Salmonella Typhimurium at 200 ug/mL after 24 hrs by disk diffusion method. It is filed as functional, Salmonella enterica subsp. enterica serovar Typhimurium. The settings on record: Salmonella enterica, read-out: IZ.
Assay [3] deals with Staphylococcus aureus. The assay is described as follows: Antimicrobial activity against Staphylococcus aureus at 200 ug/mL after 24 hrs by disk diffusion method. It is filed as functional. The settings on record: read-out: IZ.
Assay [4] relates to Escherichia coli. The assay can be described thus: Antimicrobial activity against Escherichia coli after 24 hrs by broth microdilution method. The format is functional, organism-based.
Assay [5] concerns Streptococcus pyogenes. The assay is described as follows: Antimicrobial activity against Streptococcus pyogenes after 24 hrs by broth microdilution method. The format is functional, organism-based. In general terms: Dilution methods test growth across graded concentrations, often in twofold steps.
Assay [6] deals with Streptococcus pyogenes. The assay can be described thus: Antimicrobial activity against Streptococcus pyogenes at 200 ug/mL after 24 hrs by disk diffusion method. It is filed as functional. The settings on record: read-out: IZ.
For assay [7], the system named is Staphylococcus aureus. The assay can be described thus: Antimicrobial activity against Staphylococcus aureus after 24 hrs by broth microdilution method. The format is functional, organism-based.
In assay [8] the test system is Salmonella typhimurium. The assay can be described thus: Antimicrobial activity against Salmonella Typhimurium after 24 hrs by broth microdilution method. The format is functional, organism-based, Salmonella enterica subsp. enterica serovar Typhimurium. The note with it: Salmonella enterica.

As for `CC(C)CCC[C@@H](C)[C@H]1CC[C@H]2[C@@H]3CC=C4C/C(=N/Nc5nc6nc7ccccc7nc6o5)CC[C@]4(C)[C@H]3CC[C@]12C`, the zone of inhibition at 200 µg/mL was found to be 23.6 mm in assay [1], 24.5 mm in assay [2], 22.5 mm in assay [3] and 23.4 mm in assay [6]. Also, the IC50 (usually the midpoint of a concentration-inhibition curve) in assay [4] worked out at 0.26 mg/L (≈ 0.458 µM); in assay [5], 0.54 mg/L (≈ 0.951 µM); in assay [7], 0.48 mg/L (≈ 0.845 µM); in assay [8] it was 0.48 mg/L (≈ 0.845 µM). In addition, the MIC (as a rule, the lowest concentration found to suppress growth) in assay [4] was 0.39 mg/L (≈ 0.687 µM); in assay [5] it was 0.78 mg/L (≈ 1.37 µM); in assay [7], 0.78 mg/L (≈ 1.37 µM); in assay [8] it was 0.78 mg/L (≈ 1.37 µM).

On to `CC(C)CCC[C@@H](C)[C@H]1CC[C@H]2[C@@H]3CC=C4C/C(=N/NC(N)=O)CC[C@]4(C)[C@H]3CC[C@]12C`, for which the zone of inhibition at 200 µg/mL in assay [1] turned out to be 14.2 mm; in assay [2], 15.5 mm; in assay [3], 14.6 mm; in assay [6] it was 13.4 mm. In addition, the IC50 in assay [4] came to 1.88 mg/L (≈ 4.26 µM); in assay [5], 3.68 mg/L (≈ 8.33 µM); in assay [7], 3.65 mg/L (≈ 8.26 µM); in assay [8] it was 1.94 mg/L (≈ 4.39 µM). The MIC turned out to be 3.12 mg/L (≈ 7.06 µM) in assay [4], 6.25 mg/L (≈ 14.1 µM) in assay [5], 6.25 mg/L (≈ 14.1 µM) in assay [7] and 3.12 mg/L (≈ 7.06 µM) in assay [8].

Turning to `CC(C)CCC[C@@H](C)[C@H]1CC[C@H]2[C@@H]3CC=C4C/C(=N/NC(N)=S)CC[C@]4(C)[C@H]3CC[C@]12C`, the zone of inhibition at 200 µg/mL was found to be 15.5 mm in assay [1], 14.5 mm in assay [2], 15.2 mm in assay [3] and 13.5 mm in assay [6]. Moreover, the IC50 in assay [4] stood at 3.68 mg/L (≈ 8.04 µM); in assay [5], 3.66 mg/L (≈ 8 µM); in assay [7] it was 3.68 mg/L (≈ 8.04 µM); in assay [8], 3.72 mg/L (≈ 8.13 µM). The MIC in assay [4], in assay [5], in assay [7] and in assay [8] was 6.25 mg/L (≈ 13.7 µM) each time.

On to `CC(C)CCC[C@@H](C)[C@H]1CC[C@H]2[C@@H]3CC=C4C/C(=N/Nc5nc6nc7ccccc7nc6s5)CC[C@]4(C)[C@H]3CC[C@]12C`, for which the zone of inhibition at 200 µg/mL in assay [1] came out at 21.4 mm; in assay [2], 20.4 mm; in assay [3] it was 21.2 mm; in assay [6], 23.2 mm. The IC50 in assay [4] came out at 0.24 mg/L (≈ 0.411 µM); in assay [5], 0.52 mg/L (≈ 0.891 µM); in assay [7], 0.54 mg/L (≈ 0.925 µM); in assay [8], 0.28 mg/L (≈ 0.48 µM). Moreover, the MIC in assay [4] was 0.39 mg/L (≈ 0.668 µM); in assay [5], 0.78 mg/L (≈ 1.34 µM); in assay [7] it was 0.78 mg/L (≈ 1.34 µM); in assay [8] it was 0.39 mg/L (≈ 0.668 µM).

Consider `CC1(C)S[C@@H]2[C@H](NC(=O)[C@H](N)c3ccc(O)cc3)C(=O)N2[C@H]1C(=O)O` [AMOXICILLIN], for which the zone of inhibition at 200 µg/mL in assay [1] was found to be 20 mm; in assay [2], 17.2 mm; in assay [3], 17 mm; in assay [6], 18.2 mm. For the same compound, the IC50 in assay [4] is 1.9 mg/L (≈ 5.2 µM); in assay [5], 1.8 mg/L (≈ 4.93 µM); in assay [7] it was 1.82 mg/L (≈ 4.98 µM); in assay [8] it was 1.85 mg/L (≈ 5.06 µM). The MIC in assay [4], in assay [5], in assay [7] and in assay [8] was 3.12 mg/L (≈ 8.54 µM) in each case.

On to `CC(C)CCC[C@@H](C)[C@H]1CC[C@H]2[C@@H]3CC=C4C[C@@H](O)CC[C@]4(C)[C@H]3CC[C@]12C` [CHOLESTEROL], for which the zone of inhibition at 200 µg/mL in assay [1] was found to be 9 mm; in assay [2], 8.2 mm; in assay [3] it was 9.2 mm; in assay [6], 7.8 mm.
